Target: T1, cathepsin K (Homo sapiens, UniProt P43235)
T1 construct: gene CTSK; recombinant human CatK
T1 sequence (P43235 115-329): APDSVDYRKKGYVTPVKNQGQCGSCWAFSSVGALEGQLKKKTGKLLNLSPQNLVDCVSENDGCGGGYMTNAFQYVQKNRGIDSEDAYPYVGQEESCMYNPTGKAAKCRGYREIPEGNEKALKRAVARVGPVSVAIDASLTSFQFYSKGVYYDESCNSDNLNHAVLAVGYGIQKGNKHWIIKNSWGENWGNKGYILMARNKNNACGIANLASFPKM
Assay: gelatin zymography with recombinant human CatK
Format: biochemical

Row | IC50 | SMILES
1 | 29 ± 11 nM | CC(C)C[C@H](NC(=O)c1cccc(-c2ccc(-c3ccccc3)cc2)c1)C(=O)N(C)N(C)C#N [CKI-13]
2 | 51 ± 20 nM | CC(C)C[C@H](NC(=O)c1ccc(-c2ccc(-c3ccccc3)cc2)cc1)C(=O)N(C)N(C)C#N [CKI-8]

Source: publication PMC4500499, “Azanitrile Cathepsin K Inhibitors: Effects on Cell Toxicity, Osteoblast-Induced Mineralization and Osteoclast-Mediated Bone Resorption” (PLoS ONE, 2015)
